Assay results taken from patent publication US10479795B2 (Incyte Corporation, priority 2016, dated 2019).
pIC50: −log10 of the molar value. Where a name gives a salt, the structure may show the parent alone. Read-outs that look alike come from different tables or passages of the source.

What was measured:
[1] = system: Phosphorylated Ribosomal Protein S6 (RPS6); test: THP-1 RPS6 ELISA Assay; format: cell-based, Human; conditions: THP-1 cells, read-out: PI3Kγ_THP1_RPS6_ELISA IC50
Procedure, shortened: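 IC50 values come from a curve of percent inhibition against log compound concentration, using phospho-RPS6 ELISA (450 nm) on THP-1 lysates. Cells were serum-starved overnight, exposed to compound for 2 h at 37 °C, then challenged 15 min with 10 nM MCP-1.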

[2] = target: PI3Kγ (p110γ) Recombinant Human Protein (Homo sapiens (Human), UniProt P48736); test: PI3K-γ Scintillation Proximity Assay; format: biochemical; conditions: read-out: PI3Kγ IC50
PI3Kγ (p110γ) Recombinant Human Protein, sequence (P48736 whole entry): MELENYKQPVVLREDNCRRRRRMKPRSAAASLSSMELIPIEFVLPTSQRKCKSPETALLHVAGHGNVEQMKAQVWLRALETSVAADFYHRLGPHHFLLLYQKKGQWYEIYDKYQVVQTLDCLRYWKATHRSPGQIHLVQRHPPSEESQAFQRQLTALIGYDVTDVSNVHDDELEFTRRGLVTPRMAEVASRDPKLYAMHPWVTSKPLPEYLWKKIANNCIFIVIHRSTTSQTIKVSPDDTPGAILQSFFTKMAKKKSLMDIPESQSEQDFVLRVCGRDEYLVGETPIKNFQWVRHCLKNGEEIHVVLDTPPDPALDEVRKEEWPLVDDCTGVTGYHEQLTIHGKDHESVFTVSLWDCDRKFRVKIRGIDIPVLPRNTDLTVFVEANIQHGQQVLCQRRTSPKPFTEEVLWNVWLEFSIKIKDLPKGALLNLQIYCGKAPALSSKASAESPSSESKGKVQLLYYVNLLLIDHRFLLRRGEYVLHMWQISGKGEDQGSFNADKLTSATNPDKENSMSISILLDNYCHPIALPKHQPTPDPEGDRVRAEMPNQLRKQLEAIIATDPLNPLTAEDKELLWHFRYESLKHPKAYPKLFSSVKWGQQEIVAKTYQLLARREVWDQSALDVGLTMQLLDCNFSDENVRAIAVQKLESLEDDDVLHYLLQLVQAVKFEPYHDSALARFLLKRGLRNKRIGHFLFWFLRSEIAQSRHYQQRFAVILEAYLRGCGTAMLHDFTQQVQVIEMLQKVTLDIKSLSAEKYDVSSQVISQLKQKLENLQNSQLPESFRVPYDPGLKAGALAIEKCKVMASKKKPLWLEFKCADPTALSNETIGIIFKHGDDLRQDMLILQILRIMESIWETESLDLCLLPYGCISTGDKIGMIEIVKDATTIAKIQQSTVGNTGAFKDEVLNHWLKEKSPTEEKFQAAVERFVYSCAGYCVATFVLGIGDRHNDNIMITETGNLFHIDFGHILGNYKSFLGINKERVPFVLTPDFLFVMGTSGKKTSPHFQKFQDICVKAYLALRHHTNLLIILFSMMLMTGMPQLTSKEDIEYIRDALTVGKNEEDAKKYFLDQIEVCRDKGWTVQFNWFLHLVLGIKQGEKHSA
Procedure, shortened: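 Radiometric SPA readout: […] bound to WGA beads after overnight shaking, IC50 derived from % activity of DMSO control. Reaction used human p110γ, 2 μM ATP, 20 μM PIP2, pH 6.7 MOPS buffer with MgCl2, DTT, CHAPS, 2% DMSO, room temperature.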

[3] = target: PI3Kδ (p110δ/p85α) Recombinant Human Protein (Homo sapiens (Human), UniProt O00329); test: PI3Kδ Scintillation Proximity Assay; format: biochemical
PI3Kδ (p110δ/p85α) Recombinant Human Protein, sequence (O00329 whole entry): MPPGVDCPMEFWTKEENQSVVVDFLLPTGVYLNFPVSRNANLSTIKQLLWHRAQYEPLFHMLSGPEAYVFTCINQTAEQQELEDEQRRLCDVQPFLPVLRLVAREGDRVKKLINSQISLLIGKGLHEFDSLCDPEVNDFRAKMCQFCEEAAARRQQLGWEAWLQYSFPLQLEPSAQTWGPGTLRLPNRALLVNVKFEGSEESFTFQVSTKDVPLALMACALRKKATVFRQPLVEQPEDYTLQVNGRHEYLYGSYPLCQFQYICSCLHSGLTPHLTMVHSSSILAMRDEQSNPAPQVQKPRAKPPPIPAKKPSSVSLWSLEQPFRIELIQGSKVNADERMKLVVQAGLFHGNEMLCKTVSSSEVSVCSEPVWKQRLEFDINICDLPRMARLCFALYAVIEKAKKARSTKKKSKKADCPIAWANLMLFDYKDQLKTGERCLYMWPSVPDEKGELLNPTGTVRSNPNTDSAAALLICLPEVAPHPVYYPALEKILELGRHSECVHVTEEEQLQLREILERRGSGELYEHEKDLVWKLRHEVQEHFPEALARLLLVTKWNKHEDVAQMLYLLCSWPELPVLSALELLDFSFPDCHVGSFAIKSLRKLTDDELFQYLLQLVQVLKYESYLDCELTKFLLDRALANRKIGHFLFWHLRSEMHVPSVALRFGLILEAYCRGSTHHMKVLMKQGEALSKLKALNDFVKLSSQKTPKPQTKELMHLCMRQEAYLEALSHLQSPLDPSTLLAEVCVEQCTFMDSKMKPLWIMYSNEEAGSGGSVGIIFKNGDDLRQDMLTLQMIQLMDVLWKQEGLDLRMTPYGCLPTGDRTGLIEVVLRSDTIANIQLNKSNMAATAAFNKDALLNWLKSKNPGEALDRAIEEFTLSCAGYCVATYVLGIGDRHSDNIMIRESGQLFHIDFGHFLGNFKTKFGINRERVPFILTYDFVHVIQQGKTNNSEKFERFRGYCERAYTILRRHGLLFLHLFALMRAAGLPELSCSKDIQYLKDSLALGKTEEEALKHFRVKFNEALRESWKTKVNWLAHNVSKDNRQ
PI3Kδ (p110δ/p85α) Recombinant Human Protein, sequence (P27986 whole entry partner): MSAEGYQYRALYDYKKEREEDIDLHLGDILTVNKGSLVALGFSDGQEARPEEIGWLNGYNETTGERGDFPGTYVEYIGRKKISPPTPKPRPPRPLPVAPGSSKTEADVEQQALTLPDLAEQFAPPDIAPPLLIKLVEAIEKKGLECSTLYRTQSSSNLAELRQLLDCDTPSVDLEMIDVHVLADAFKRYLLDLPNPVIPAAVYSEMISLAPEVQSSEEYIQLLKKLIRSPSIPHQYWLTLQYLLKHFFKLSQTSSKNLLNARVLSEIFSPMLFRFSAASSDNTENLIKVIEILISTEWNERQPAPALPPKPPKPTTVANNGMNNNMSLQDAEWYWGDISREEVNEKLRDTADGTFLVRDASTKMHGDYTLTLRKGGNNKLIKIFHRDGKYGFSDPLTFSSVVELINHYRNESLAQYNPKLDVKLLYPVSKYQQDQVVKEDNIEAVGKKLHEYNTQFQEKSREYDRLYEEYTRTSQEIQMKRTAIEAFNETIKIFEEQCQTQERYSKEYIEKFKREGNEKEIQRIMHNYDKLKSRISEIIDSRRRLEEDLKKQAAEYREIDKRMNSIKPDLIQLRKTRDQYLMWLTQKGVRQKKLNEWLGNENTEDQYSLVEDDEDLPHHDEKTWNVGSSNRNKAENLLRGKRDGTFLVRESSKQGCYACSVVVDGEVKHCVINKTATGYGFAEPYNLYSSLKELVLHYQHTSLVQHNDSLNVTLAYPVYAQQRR
Procedure, shortened: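 Radiometric read-out: 33P-labelled PIP3 product captured on WGA SPA beads and counted, with IC50 fitted from percent activity relative to DMSO control. Enzyme (3.4 nM) was incubated 120 min at room temperature with 20 μM PIP2 and 2 μM ATP at pH 6.7, 2% DMSO.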

Cc1ccc(S(=O)(=O)NC23CC(F)(C2)C3)cc1-c1cnc2c(N)ncnn12 [Example 98, 3-(4-Aminoimidazo[1,2-f][1,2,4]triazin-7-yl)-N-(3-fluorobicyclo[1.1.1]pentan-1-yl)-4-methylbenzenesulfonamide trifluoroacetate salt]
pIC50 [1]: 6.30 to 7.00
pIC50 [2]: > 7.00
pIC50 [3]: 5.70 to 6.30

Cc1ccc(S(=O)(=O)NC23CC(c4nnn[nH]4)(C2)C3)cc1-c1cnc2c(N)ncnn12 [Example 99, N-(3-(1H-tetrazol-5-yl)bicyclo[1.1.1]pentan-1-yl)-3-(4-aminoimidazo[1,2-f][1,2,4]triazin-7-yl)-4-methylbenzenesulfonamide trifluoroacetate salt]
pIC50 [1]: < 6.00
pIC50 [2]: > 7.00
pIC50 [3]: 5.70 to 6.30

Cc1ccc(S(=O)(=O)NC2CCOC2C)cc1-c1cnc2c(N)ncnn12 (stereo not drawn) [Example 100, 3-(4-Aminoimidazo[1,2-f][1,2,4]triazin-7-yl)-4-methyl-N-(2-methyltetrahydrofuran-3-yl)benzenesulfonamide trifluoroacetate salt]
pIC50 [1]: 6.00 to 6.30
pIC50 [2]: > 7.00
pIC50 [3]: 5.70 to 6.30

Cc1ccc(S(=O)(=O)NCC2(C#N)CC2)cc1-c1cnc2c(N)ncnn12 [Example 101, 3-(4-Aminoimidazo[1,2-f][1,2,4]triazin-7-yl)-N-((1-cyanocyclopropyl)methyl)-4-methylbenzenesulfonamide trifluoroacetate salt]
pIC50 [1]: < 6.00
pIC50 [2]: > 7.00
pIC50 [3]: 5.70 to 6.30

Cc1ccc(S(=O)(=O)NCC2(C#N)CCC2)cc1-c1cnc2c(N)ncnn12 [Example 102, 3-(4-Aminoimidazo[1,2-f][1,2,4]triazin-7-yl)-N-((1-cyanocyclobutyl)methyl)-4-methylbenzenesulfonamide trifluoroacetate salt]
pIC50 [1]: 6.30 to 7.00
pIC50 [2]: > 7.00
pIC50 [3]: 6.30 to 7.00

CC(=O)N1CC(NS(=O)(=O)c2ccc(C)c(-c3cnc4c(N)ncnn34)c2)C1 [Example 103, N-(1-Acetylazetidin-3-yl)-3-(4-aminoimidazo[1,2-f][1,2,4]triazin-7-yl)-4-methylbenzenesulfonamide trifluoroacetate salt]
pIC50 [1]: < 6.00
pIC50 [2]: > 7.00
pIC50 [3]: 5.70 to 6.30

Cc1ccc(S(=O)(=O)NC2COC2)cc1-c1cnc2c(N)ncnn12 [Example 104, 3-(4-Aminoimidazo[1,2-f][1,2,4]triazin-7-yl)-4-methyl-N-(oxetan-3-yl)benzenesulfonamide]
pIC50 [1]: 6.00 to 6.30
pIC50 [2]: > 7.00
pIC50 [3]: 5.70 to 6.30

Cc1ccc(S(=O)(=O)NC23CC(C2)C3)cc1-c1cnc2c(N)ncnn12 [Example 106, 3-(4-Aminoimidazo[1,2-f][1,2,4]triazin-7-yl)-N-(bicyclo[1.1.1]pentan-1-yl)-4-methylbenzenesulfonamide trifluoroacetate salt]
pIC50 [1]: < 6.00
pIC50 [2]: > 7.00
pIC50 [3]: 5.70 to 6.30

Cc1ccc(S(=O)(=O)NC23CCC(CO)(C2)C3)cc1-c1cnc2c(N)ncnn12 [Example 107, 3-(4-Aminoimidazo[1,2-f][1,2,4]triazin-7-yl)-N-(4-(hydroxymethyl)bicyclo[2.1.1]hexan-1-yl)-4-methylbenzenesulfonamide trifluoroacetate salt]
pIC50 [1]: 6.00 to 6.30
pIC50 [2]: > 7.00
pIC50 [3]: 6.30 to 7.00

Cc1ccc(S(=O)(=O)NC23CCC(CC#N)(C2)C3)cc1-c1cnc2c(N)ncnn12 [Example 108, 3-(4-Aminoimidazo[1,2-f][1,2,4]triazin-7-yl)-N-(4-(cyanomethyl)bicyclo[2.1.1]hexan-1-yl)-4-methylbenzenesulfonamide trifluoroacetate salt]
pIC50 [1]: 6.30 to 7.00
pIC50 [2]: > 7.00
pIC50 [3]: 6.30 to 7.00

Cc1ccc(S(=O)(=O)NC23CCC(C(=O)O)(C2)C3)cc1-c1cnc2c(N)ncnn12 [Example 109, 4-(3-(4-Aminoimidazo[1,2-f][1,2,4]triazin-7-yl)-4-methylphenylsulfonamido)bicyclo[2.1.1]hexane-1-carboxylic acid]
pIC50 [1]: < 6.00
pIC50 [2]: > 7.00
pIC50 [3]: 5.70 to 6.30

Cc1ccc(S(=O)(=O)NC23CCC(C(N)=O)(C2)C3)cc1-c1cnc2c(N)ncnn12 [Example 110, 4-(3-(4-Aminoimidazo[1,2-f][1,2,4]triazin-7-yl)-4-methylphenylsulfonamido)bicyclo[2.1.1]hexane-1-carboxamide trifluoroacetate salt]
pIC50 [1]: < 6.00
pIC50 [2]: > 7.00
pIC50 [3]: 6.30 to 7.00

Cc1ccc(S(=O)(=O)NC23CC(c4cnco4)(C2)C3)cc1-c1cnc2c(N)ncnn12 [Example 111, 3-(4-Aminoimidazo[1,2-f][1,2,4]triazin-7-yl)-4-methyl-N-(3-(oxazol-5-yl)bicyclo[1.1.1]pentan-1-yl)benzenesulfonamide trifluoroacetate salt]
pIC50 [1]: 6.30 to 7.00
pIC50 [2]: > 7.00
pIC50 [3]: 6.30 to 7.00

Cc1ccc(S(=O)(=O)NC23CC(Cn4ccnc4)(C2)C3)cc1-c1cnc2c(N)ncnn12 [Example 112, N-(3-((1H-Imidazol-1-yl)methyl)bicyclo[1.1.1]pentan-1-yl)-3-(4-aminoimidazo[1,2-f][1,2,4]triazin-7-yl)-4-methylbenzenesulfonamide trifluoroacetate salt]
pIC50 [1]: 6.30 to 7.00
pIC50 [2]: > 7.00
pIC50 [3]: 6.30 to 7.00

Cc1ccc(S(=O)(=O)NC23CC(Cn4cncn4)(C2)C3)cc1-c1cnc2c(N)ncnn12 [Example 113, N-(3-((1H-1,2,4-triazol-1-yl)methyl)bicyclo[1.1.]pentan-1-yl)-3-(4-aminoimidazo[1,2-f][1,2,4]triazin-7-yl)-4-methylbenzenesulfonamide trifluoroacetate salt]
pIC50 [1]: 6.30 to 7.00
pIC50 [2]: > 7.00
pIC50 [3]: 5.70 to 6.30

Cc1ccc(S(=O)(=O)NC23CC(c4nccs4)(C2)C3)cc1-c1cnc2c(N)ncnn12 [Example 114, 3-(4-Aminoimidazo[1,2-f][1,2,4]triazin-7-yl)-4-methyl-N-(3-(thiazol-2-yl)bicyclo[1.1.1]pentan-1-yl)benzenesulfonamide trifluoroacetate salt]
pIC50 [1]: 6.30 to 7.00
pIC50 [2]: > 7.00
pIC50 [3]: 6.30 to 7.00

COC(=O)NC12CC(NS(=O)(=O)c3ccc(C)c(-c4cnc5c(N)ncnn45)c3)(C1)C2 [Example 115, Methyl 3-(3-(4-aminoimidazo[1,2-f][1,2,4]triazin-7-yl)-4-methylphenylsulfonamido)bicyclo[1.1.1]pentan-1-ylcarbamate trifluoroacetate salt]
pIC50 [1]: 6.30 to 7.00
pIC50 [2]: > 7.00
pIC50 [3]: 5.70 to 6.30

Cc1ccc(S(=O)(=O)NC23CC(N4CCOCC4)(C2)C3)cc1-c1cnc2c(N)ncnn12 [Example 116, 3-(4-Aminoimidazo[1,2-f][1,2,4]triazin-7-yl)-4-methyl-N-(3-morpholinobicyclo[1.1.1]pentan-1-yl)benzenesulfonamide trifluoroacetate salt]
pIC50 [1]: 6.30 to 7.00
pIC50 [2]: > 7.00
pIC50 [3]: 5.70 to 6.30

Cc1ccc(S(=O)(=O)NC23CC(C)(C2)C3)cc1-c1cnc2c(N)ncnn12 [Example 117, 3-(4-Aminoimidazo[1,2-f][1,2,4]triazin-7-yl)-4-methyl-N-(3-methylbicyclo[1.1.1]pentan-1-yl)benzenesulfonamide]
pIC50 [1]: 6.30 to 7.00
pIC50 [2]: > 7.00
pIC50 [3]: 5.70 to 6.30

Cc1ccc(S(=O)(=O)N(C)C23CC(N)(C2)C3)cc1-c1cnc2c(N)ncnn12 [Example 118, N-(3-aminobicyclo[1.1.1]pentan-1-yl)-3-(4-aminoimidazo[1,2-f][1,2,4]triazin-7-yl)-N,4-dimethylbenzenesulfonamide trifluoroacetate salt]
pIC50 [1]: < 6.00
pIC50 [2]: > 7.00
pIC50 [3]: 6.30 to 7.00

Cc1ccc(S(=O)(=O)NCC2(CO)CCOCC2)cc1-c1cnc2c(N)ncnn12 [Example 121, 3-(4-aminoimidazo[2,1-f][1,2,4]triazin-7-yl)-N-{[4-(hydroxymethyl)tetrahydro-2H-pyran-4-yl]methyl}-4-methylbenzenesulfonamide]
pIC50 ([1]; Homo sapiens): < 6.00
pIC50 [2]: 6.30 to 7.00
pIC50 [3]: < 5.70

Cc1ccc(S(=O)(=O)NC2CCC(F)(F)CC2)cc1-c1cnc2c(N)ncnn12 [Example 122, 3-(4-aminoimidazo[2,1-f][1,2,4]triazin-7-yl)-N-(4,4-difluorocyclohexyl)-4-methylbenzenesulfonamide]
pIC50 ([1]; Homo sapiens): 6.30 to 7.00
pIC50 [2]: > 7.00
pIC50 [3]: 5.70 to 6.30

Cc1ccc(S(=O)(=O)N[C@H]2COC[C@@H]2O)cc1-c1cnc2c(N)ncnn12 [Example 123, 3-(4-aminoimidazo[2,1-f][1,2,4]triazin-7-yl)-N-[(3S,4R)-4-hydroxytetrahydrofuran-3-yl]-4-methylbenzenesulfonamide]
pIC50 ([1]; Homo sapiens): 6.00 to 6.30
pIC50 [2]: > 7.00
pIC50 [3]: 5.70 to 6.30

Cc1ccc(S(=O)(=O)N[C@H]2CC[C@](O)(C(F)(F)F)CC2)cc1-c1cnc2c(N)ncnn12 [Example 124, 3-(4-aminoimidazo[2,1-f][1,2,4]triazin-7-yl)-N-[cis-4-hydroxy-4-(trifluoromethyl)cyclohexyl]-4-methylbenzenesulfonamide]
pIC50 [1]: 6.30 to 7.00
pIC50 [2]: > 7.00
pIC50 [3]: 6.30 to 7.00
